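How tested: cells in 96-well plates exposed to compound for 48 hours at five concentrations. Here, GI50 denotes the concentration required for 50% inhibition of growth.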 Calls of active or inactive are those of the source. Cut-off read from the data, not from the text of the source: active = GI50 up to about 1.1 µM and inactive = higher.

The source of these data is ChEMBL document CHEMBL1201862, “PubChem BioAssay data set” (2004).

Test systems include CCRF-CEM; MCF7; NCI-H23; T47D; SNB-19; IGROV-1; A549; U-251; SK-MEL-2; OVCAR-8; PC-3; DU-145; NCI/ADR-RES; ACHN; OVCAR-4; SF-295; 786-0; NCI-H522; HT-29; SF-539.
Common to all, as to assay: NCI anticancer screen, dose series, 48 h

In the case of `COC(=O)CC(c1ccccc1)C(C#N)(OP1(=O)OC(c2ccccc2)C(C)N1C)c1ccccc1` (stereo unspecified), the GI50 in the experiment on CCRF-CEM is 37.8 µM (inactive); in the experiment on MCF7, 37.2 µM (inactive); in the experiment with NCI-H23, 57.3 µM (inactive); with T47D, 68.2 µM (inactive); in the experiment with SNB-19 it was 73.5 µM (inactive); with IGROV-1, 71.9 µM (inactive). In addition, the GI50 with A549 was 35.2 µM (inactive); with U-251 it was 54.1 µM (inactive); in the experiment with SK-MEL-2 it was 27.9 µM (inactive); with OVCAR-8, 48 µM (inactive); with PC-3, 35.8 µM (inactive); in the experiment with DU-145 it was > 100 µM (inactive). For the same compound, the GI50 was 50.5 µM (inactive) in the experiment on NCI/ADR-RES; 39.4 µM (inactive) in the experiment on ACHN; 33.3 µM (inactive) in the experiment with OVCAR-4; 71.6 µM (inactive) in the experiment with SF-295; 83.4 µM (inactive) in the experiment on 786-0; 35 µM (inactive) in the experiment with NCI-H522. Moreover, the GI50 in the experiment with HT-29 was 46.8 µM (inactive).
Take `COc1ccc(/N=N/C(=O)NC(CC(C)C)C(=O)NC(CC(C)C)C(=O)O)cc1` (stereo unspecified): the GI50 is 42.6 µM (inactive) with CCRF-CEM; > 100 µM (inactive) in the experiment with MCF7; > 100 µM (inactive) in the experiment with NCI-H23; 26.9 µM (inactive) in the experiment on T47D; > 100 µM (inactive) in the experiment with SNB-19; > 100 µM (inactive) with IGROV-1. Also, the GI50 was 38.9 µM (inactive) with A549; > 100 µM (inactive) with U-251; 4.81 µM (inactive) in the experiment on SF-539; > 100 µM (inactive) in the experiment with OVCAR-8; 18.7 µM (inactive) with PC-3; 27.7 µM (inactive) with DU-145. The GI50 is > 100 µM (inactive) in the experiment with NCI/ADR-RES; 12.5 µM (inactive) in the experiment with ACHN; > 100 µM (inactive) in the experiment on OVCAR-4; 34.8 µM (inactive) with SF-295; > 100 µM (inactive) with 786-0; 51.9 µM (inactive) in the experiment with NCI-H522. The GI50 in the experiment on HT-29 is > 100 µM (inactive).
As to `N#Cc1sc2c(c1OC(=O)c1ccc(C(F)(F)F)cc1)c(=O)n(-c1ccccc1)c(=S)n2-c1ccccc1`, the GI50 with CCRF-CEM is 10.2 µM (inactive); with MCF7 it was 30.1 µM (inactive); in the experiment on NCI-H23, 29.6 µM (inactive); in the experiment with T47D it was 34.5 µM (inactive); in the experiment with SNB-19, 34 µM (inactive); with IGROV-1, 21.2 µM (inactive). The GI50 in the experiment on A549 is 23.3 µM (inactive); in the experiment with U-251, 20.7 µM (inactive); in the experiment with SF-539, 25.2 µM (inactive); with OVCAR-8 it was 23.2 µM (inactive); in the experiment with PC-3 it was 26.7 µM (inactive); in the experiment with DU-145, 38.5 µM (inactive). The GI50 in the experiment with NCI/ADR-RES was 27.9 µM (inactive); in the experiment on ACHN, 26.2 µM (inactive); in the experiment on OVCAR-4, 33.8 µM (inactive); with SF-295, 25.6 µM (inactive); in the experiment with 786-0, 32.1 µM (inactive); with NCI-H522, 0.107 µM (active). In addition, in the experiment with HT-29, the GI50 is 25.2 µM (inactive).
In the case of `CCOC(=O)CCCn1nnc(C(=O)OCC)c1C(=O)OCC`, the GI50 in the experiment with CCRF-CEM, in the experiment on MCF7, in the experiment with NCI-H23, in the experiment on T47D, with SNB-19 and in the experiment on IGROV-1 was > 100 µM (inactive) throughout. For the same compound, the GI50 in the experiment with A549, in the experiment on U-251, in the experiment on SF-539, in the experiment with SK-MEL-2, with OVCAR-8 and in the experiment on PC-3 was > 100 µM (inactive) in each case. Besides, the GI50 with DU-145, with NCI/ADR-RES, in the experiment on ACHN, with OVCAR-4, with SF-295 and in the experiment with 786-0 was > 100 µM (inactive) throughout. Also, in the experiment on HT-29, the GI50 is > 100 µM (inactive).
As for `N#Cc1c2c([nH]c(=O)c1C#N)CCCC2`, the GI50 with CCRF-CEM, in the experiment on MCF7, with NCI-H23, with T47D, with SNB-19 and in the experiment on IGROV-1 was > 100 µM (inactive) in each case. Besides, the GI50 in the experiment on A549, with U-251, with SF-539, with SK-MEL-2, with OVCAR-8 and in the experiment with PC-3 was > 100 µM (inactive) in each case. For the same compound, the GI50 with DU-145, in the experiment with NCI/ADR-RES, in the experiment on ACHN, in the experiment with SF-295, in the experiment with 786-0 and with HT-29 was > 100 µM (inactive) in each case.
For the compound `C=CC1(c2ccc(Cl)c(Cl)c2)OCCO1`, the GI50 in the experiment with CCRF-CEM is > 100 µM (inactive); in the experiment with MCF7, > 100 µM (inactive); in the experiment on NCI-H23, 45.8 µM (inactive); with T47D it was > 100 µM (inactive); in the experiment with SNB-19, > 100 µM (inactive); with IGROV-1, > 100 µM (inactive). Also, the GI50 with A549 is > 100 µM (inactive); in the experiment with U-251 it was > 100 µM (inactive); in the experiment with SK-MEL-2, 79.4 µM (inactive); in the experiment with OVCAR-8, > 100 µM (inactive); with PC-3 it was > 100 µM (inactive); in the experiment on DU-145 it was > 100 µM (inactive). Moreover, the GI50 in the experiment on NCI/ADR-RES, in the experiment with ACHN, in the experiment with OVCAR-4, in the experiment with SF-295, in the experiment with 786-0 and with NCI-H522 was > 100 µM (inactive) each time. Besides, the GI50 in the experiment with HT-29 was 88.5 µM (inactive).
With `O=C1NCCCc2nonc21`, the GI50 with CCRF-CEM, with MCF7, in the experiment on NCI-H23, with T47D, with SNB-19 and in the experiment with IGROV-1 was > 100 µM (inactive) throughout. Besides, the GI50 in the experiment on A549, in the experiment with U-251, with SF-539, in the experiment on SK-MEL-2, in the experiment on OVCAR-8 and in the experiment with PC-3 was > 100 µM (inactive) each time. The GI50 with DU-145, in the experiment on NCI/ADR-RES, in the experiment with ACHN, in the experiment with OVCAR-4, in the experiment on SF-295 and in the experiment on 786-0 was > 100 µM (inactive) in each case. The GI50 in the experiment with HT-29 is > 100 µM (inactive).
As to `O=S(=O)(O)c1cc(/N=N/c2cccc3ccccc23)c(O)c2ncccc12`, the GI50 in the experiment with CCRF-CEM is 24.7 µM (inactive); with MCF7 it was 23.7 µM (inactive); with NCI-H23 it was 38.9 µM (inactive); in the experiment on T47D, 55.7 µM (inactive); in the experiment with SNB-19, > 100 µM (inactive); in the experiment with IGROV-1 it was 29.3 µM (inactive). For the same compound, the GI50 with A549 was 35.4 µM (inactive); with U-251, 42 µM (inactive); in the experiment with SF-539, 56.1 µM (inactive); with SK-MEL-2, 82 µM (inactive); in the experiment on OVCAR-8, > 100 µM (inactive); with PC-3, 55.6 µM (inactive). Further, the GI50 with DU-145 was > 100 µM (inactive); in the experiment on NCI/ADR-RES, 65.2 µM (inactive); in the experiment on ACHN it was 44 µM (inactive); in the experiment on OVCAR-4, 46 µM (inactive); in the experiment with SF-295, > 100 µM (inactive); in the experiment with 786-0 it was 38.7 µM (inactive). Also, the GI50 with HT-29 was 24.8 µM (inactive).
Consider `S=C1CSc2c(cnc3ccccc23)N1`, for which the GI50 in the experiment on CCRF-CEM is > 100 µM (inactive); in the experiment on MCF7, > 100 µM (inactive); in the experiment on NCI-H23, > 100 µM (inactive); in the experiment with T47D, 80.5 µM (inactive); in the experiment on SNB-19 it was > 100 µM (inactive); in the experiment on IGROV-1, > 100 µM (inactive). For the same compound, the GI50 in the experiment with A549 is > 100 µM (inactive); in the experiment on U-251 it was > 100 µM (inactive); in the experiment with OVCAR-8 it was 65.9 µM (inactive); with PC-3 it was 68.4 µM (inactive); with DU-145, > 100 µM (inactive); in the experiment on NCI/ADR-RES, > 100 µM (inactive). Also, the GI50 is > 100 µM (inactive) in the experiment with ACHN; > 100 µM (inactive) in the experiment on OVCAR-4; 52.2 µM (inactive) in the experiment on SF-295; > 100 µM (inactive) with 786-0; > 100 µM (inactive) with NCI-H522; > 100 µM (inactive) with HT-29.
Take `O=[N+]([O-])c1ccc2c(c1)nc(Cc1ccccc1)n2C[C@@H]1CCCN2CCCCC12` (stereo partly specified): the GI50 in the experiment with CCRF-CEM is 17.6 µM (inactive); in the experiment with MCF7, 41.1 µM (inactive); in the experiment with NCI-H23, 27.5 µM (inactive); with T47D, 39.4 µM (inactive); with SNB-19, 56.4 µM (inactive); with IGROV-1 it was 25.8 µM (inactive). The GI50 in the experiment on A549 was 51.2 µM (inactive); with U-251, 44.7 µM (inactive); in the experiment with SK-MEL-2, 20.9 µM (inactive); in the experiment with OVCAR-8 it was 34.9 µM (inactive); with PC-3 it was 37.3 µM (inactive); in the experiment on DU-145, 60.5 µM (inactive). For the same compound, the GI50 in the experiment with NCI/ADR-RES is 22.9 µM (inactive); with ACHN, 57.8 µM (inactive); with OVCAR-4, 27.4 µM (inactive); with SF-295 it was 18 µM (inactive); in the experiment on 786-0, 22.3 µM (inactive); in the experiment on NCI-H522, 21.6 µM (inactive). For the same compound, the GI50 with HT-29 is 17.5 µM (inactive).
As to `CSc1ncnc2c1CCN2`, the GI50 in the experiment on CCRF-CEM was > 10 µM (inactive); in the experiment with MCF7 it was 6.34 µM (inactive); in the experiment on NCI-H23, 4.51 µM (inactive); with T47D, > 10 µM (inactive); with SNB-19, > 10 µM (inactive); in the experiment on IGROV-1, > 10 µM (inactive). Moreover, the GI50 is > 10 µM (inactive) in the experiment on A549; 5.86 µM (inactive) with SK-MEL-2; > 10 µM (inactive) in the experiment on OVCAR-8; > 10 µM (inactive) in the experiment with PC-3; > 10 µM (inactive) with DU-145; > 10 µM (inactive) with NCI/ADR-RES. Further, the GI50 in the experiment on ACHN was > 10 µM (inactive); in the experiment on OVCAR-4, > 10 µM (inactive); in the experiment with SF-295, 6.81 µM (inactive); in the experiment on 786-0, > 10 µM (inactive); with NCI-H522, 2.73 µM (inactive); in the experiment with HT-29, 7.96 µM (inactive).
